# Patent US7432260B2, “Pyrimidine compounds” (Cyclacel Limted, priority 2002, dated 2008)
# Experiments:
# [1] = system: MCF-7; assay: 72-h MTT cytotoxicity assay MCF-7; assay type: cell-based; conditions: Homo sapiens, MCF7, 72 h; Table 5; Breast
# Method: MTT cytotoxicity assay. […] Standard 72-h MTT (thiazolyl blue; 3-[4,5-dimethylthiazol-2-yl]-2,5-diphenyltetrazolium bromide) assays were performed (Haselsberger, K.; Peterson, D. C.; Thomas, D. G.; Darling, J. L. Anti Cancer Drugs 1996, 7, 331-8; Loveland, B. E.; Johns, T. G.; Mackay, I. R.; Vaillant, F.; Wang, Z. X.; Hertzog, P. J. Biochemistry International 1992, 27, 501-10). In short: cells were seeded into 96-well plates according to doubling time and incubated overnight at 37° C. Test compounds were made up in DMSO and a 1/3 dilution series prepared in 100 μL cell media, added to cells (in triplicates) and incubated for 72 ho at 37° C. MTT was made up as a stock of 5 mg/mL in cell media and filter-sterilised. Media was removed from cells followed by a wash with 200 μL PBS.
# MTT solution was then added at 20 μL per well and incubated in the dark at 37° C. for 4 h. MTT solution was removed and cells again washed with 200 μL PBS. MTT dye was solubilised with 200 μL per well of DMSO with agitation.
# [2] = target: T1, ARK-2: aurora kinase-2 (aurora A kinase) (Homo sapiens, UniProt O14965); assay: Aurora-A (human) kinase assay; assay type: biochemical; conditions: Table 2; 15 μM ATP; read-out: Kinase Inhibition IC50 ARK-2
# T1 construct: purchased
# T1 sequence (O14965 whole entry): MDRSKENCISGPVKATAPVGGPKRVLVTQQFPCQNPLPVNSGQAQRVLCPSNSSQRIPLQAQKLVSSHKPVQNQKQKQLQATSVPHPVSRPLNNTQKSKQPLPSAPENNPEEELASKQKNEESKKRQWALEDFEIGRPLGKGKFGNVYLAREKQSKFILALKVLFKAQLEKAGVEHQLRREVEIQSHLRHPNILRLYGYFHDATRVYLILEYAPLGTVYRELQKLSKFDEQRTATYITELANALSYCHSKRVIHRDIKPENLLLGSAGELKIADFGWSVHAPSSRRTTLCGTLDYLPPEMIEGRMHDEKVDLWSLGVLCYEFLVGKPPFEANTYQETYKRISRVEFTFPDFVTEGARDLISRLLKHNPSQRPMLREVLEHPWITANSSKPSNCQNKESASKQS
# Method: Aurora-A (human) kinase assay. This was achieved by measurement of incorporation of radioactive phosphate from ATP into Kemptide substrate (LRRASLG), upon phosphorylation by commercially obtained aurora-A kinase. Assays were performed using 96-well plates and appropriate assay buffers (8 mM MOPS, 0.2 mM EDTA, pH 7.0), into which were added 5-10 ng of active enzyme with 200 μM substrate (Kemptide). […] Reactions were stopped by addition of 3% phosphoric acid, followed by filtration through p81 filterplates (Whatman Polyfiltronics, Kent, UK). After washing 5 times with 75 mM aq orthophosphoric acid and once in methanol, plates were dried, scintillant added and incorporated radioactivity measured in a scintillation counter (TopCount, Packard Instruments, Pangbourne, Berks, UK). Compounds for kinase assay were made up as 10 mM stocks in DMSO and diluted into 10% DMSO in assay buffer.
Structure (SMILES),IC50 [1] [nM],IC50 [2] [nM]
"Cc1nc(N)sc1-c1ccnc(Nc2ccc(N3CCOCC3)cc2)n1 [Compound 1, [4-(2-Amino-4-methyl-thiazol-5-yl)-pyrimidin-2-yl]-(4-morpholin-4-yl-phenyl)-amine]",> 5000,
"CNc1nc(C)c(-c2ccnc(Nc3ccc(N4CCN(Cc5ccccc5)CC4)cc3)n2)s1 [Compound 11, [4-(4-Benzyl-piperazin-1-yl)-phenyl]-[4-(4-methyl-2-methylamino-thiazol-5-yl)-pyrimidin-2-yl]-amine]",1900,
"Cc1nc(NC(=O)[C@H](N)[C@@H](C)O)sc1-c1ccnc(Nc2cccc([N+](=O)[O-])c2)n1 [Compound 15, (2R,3R)-2-Amino-3-hydroxy-N-{4-methyl-5-[2-(3-nitro-phenylamino)-pyrimidin-4-yl]-thiazol-2-yl}-butyramide]",900,
"CC[C@@H](N)C(=O)Nc1nc(C)c(-c2ccnc(Nc3cccc([N+](=O)[O-])c3)n2)s1 [Compound 16, (2R)-2-Amino-N-{4-methyl-5-[2-(3-nitro-phenylamino)-pyrimidin-4-yl]-thiazol-2-yl}-butyramide]",390,2800
